For 20 compounds, Emax, IC50 and EC50 results are on record in US12209096B2, “Compounds and compositions for inducing chondrogenesis” (NOVARTIS AG, priority 2017, dated 2025).

One test concerns C3H10T1/2 cell line. As to the kind of experiment: alkaline phosphatase assay in C3H10T1/2. Format: cell-based. The settings on record: Mus musculus, C3H 10T1/2, 144 h, alkaline phosphatase assay in C3H10T1/2, 6 days; for Emax: read-out: (D) % Efficacy; for IC50: read-out: (D) IC50. How it is done: To initiate differentiation in C3H10T1/2, Clone 8 (ATCC cat #CCL-226), 4,000 cells were plated/well in 384 Perkin Elmer CellCarrier Ultra plate in DMEM/High glucose (HyClone cat #SH30022.01) containing 10% FBS and 1× Antibiotic/Antimycotic (HyClone cat #SV30079.01). After 24 hours the test compound was then added to each well at the indicated dose. The cultures were grown at 37° C. for 6 days.
To detect the presence of hypertrophic cells, C3H10T1/2 were fixed with 4% paraformaldehyde and Hoeschst dye for 20 minutes, rinsed in PBS, then stained with Fast Blue RR Salt with Naphthol AS-MX Phosphate Alkaline Solution.
The ALP staining was imaged by fluoresecent microscopy, using the 561 wavelength, and/or quantified by high content imagining with the ImageXpress Micro Confocal (Molecular Devices, Sunnyvale, CA). Data analyses were performed with the customized multiwavelength cell-scoring application looking at the number of ALP positive cells per well.

The next test has as its system NHACs. Description: calcium flux assay. The settings on record: Homo sapiens; for Emax: read-out: (A) % Efficacy. Format: cell-based, human. In a few lines:
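FLIPR fluorescence (ex 470–495 nm, em 515–575 nm) was read before and after compound dispense at the indicated dose. Chondrocytes (NHACs), 2000 cells/well, had been dye-loaded 24 h after plating with Calcium 5 in HBSS/HEPES plus 5 mM probenecid, 1 h, room temperature.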
(In general: A change in cytosolic calcium serves as a functional read-out for many receptors and channels.)

By IC50 is commonly meant the concentration that gives 50% inhibition. A word on the EC50: it is the concentration needed to bring the measured effect to its halfway point. Turning to `COc1ccc(NC(=O)[C@H]2[C@@H]3O[C@@H]([C@H]4C[C@H]43)[C@@H]2c2cccc(C(F)(F)F)n2)cn1` [Example 128, (1S,2S,4R,5R,6R,7S)—N-(6-methoxypyridin-3-yl)-7-(6-(trifluoromethyl)pyridin-2-yl)-8-oxatricyclo[3.2.1.0^2,4]octane-6-carboxamide], in the test with C3H10T1/2 cell line, the Emax amounted to 39% and the half-maximal inhibitory concentration (IC50) is above 20 µM. Further, in the test on NHACs, the EC50 is above 50 µM and the Emax stood at 27%.

With `Cn1ccc([C@H]2[C@H]3O[C@H](C[C@@H]3O)[C@@H]2C(=O)Nc2ccc(Cl)c(Cl)c2)n1` [Example 153, (1R,2R,3S,4R,5S)—N-(3,4-dichlorophenyl)-5-hydroxy-3-(1-methyl-1H-pyrazol-3-yl)-7-oxabicyclo[2.2.1]heptane-2-carboxamide], in the test with C3H10T1/2 cell line, the Emax is 46% and the IC50 is above 20 µM. Besides, in the test on NHACs, the concentration giving a half-maximal response (EC50) was determined as 19 µM and the Emax was 121%.

As to `Cc1ccc([C@H]2[C@H]3O[C@H]([C@@H]4C[C@@H]43)[C@@H]2C(=O)Nc2cnc(Cl)c(Cl)c2)cn1` [Example 74, (1S,2S,4R,5R,6R,7S)—N-(5,6-dichloropyridin-3-yl)-7-(6-methylpyridin-3-yl)-8-oxatricyclo[3.2.1.0^2,4]octane-6-carboxamide], in the test on C3H10T1/2 cell line, the Emax was 83% and the half-inhibitory concentration (IC50) was above 20 µM. Also, in the test on NHACs, the EC50 worked out at 7.7 µM and the Emax turned out to be 90%.

As for `Cc1cc([C@H]2[C@H]3O[C@H](C[C@H]3NCCO)[C@@H]2C(=O)Nc2ccc(Cl)c(Cl)c2)ccn1` [Example 168, (1R,2R,3S,4R,5R)—N-(3,4-dichlorophenyl)-5-((2-hydroxyethyl)amino)-3-(2-methylpyridin-4-yl)-7-oxabicyclo[2.2.1]heptane-2-carboxamide], in the test on C3H10T1/2 cell line, the Emax amounted to 0% and the concentration for half-maximal inhibition (IC50) was above 20 µM. In the test on NHACs, the concentration giving a half-maximal response (EC50) was 0.32 µM and the Emax was 114%.

For the compound `Cc1cc([C@H]2[C@H](C(=O)Nc3ccc(Cl)c(Cl)c3)[C@H]3O[C@@H]2C[C@@H]3O)ccn1` [Example 77d, (1R,2S,3R,4R,6S)-N-(3,4-dichlorophenyl)-6-hydroxy-3-(2-methylpyridin-4-yl)-7-oxabicyclo[2.2.1]heptane-2-carboxamide], in the test with C3H10T1/2 cell line, the Emax was determined as 54% and the concentration for half-maximal inhibition (IC50) was above 20 µM. For the same compound, in the test on NHACs, the concentration giving a half-maximal response (EC50) was 33 µM and the Emax is 92%.

`O=C(Nc1ccc(Cl)c(Cl)c1)[C@@H]1[C@H]2O[C@H]([C@@H]3C[C@@H]32)[C@H]1c1cncnc1` (single isomer, unassigned) [Example 126b]: in the test on C3H10T1/2 cell line, the Emax was 42% and the concentration for half-maximal inhibition (IC50) was above 20 µM. In the test with NHACs, the EC50 came to 5.6 µM and the Emax came to 103%.

`Cc1cc([C@@H]2[C@@H]3O[C@@H](C[C@@H]3O)[C@H]2C(=O)Nc2ccc(Cl)c(Cl)c2)ccn1` [Example 181, (1S,2S,3R,4S,5S)—N-(3,4-dichlorophenyl)-5-hydroxy-3-(2-methylpyridin-4-yl)-7-oxabicyclo[2.2.1]heptane-2-carboxamide]: in the test on C3H10T1/2 cell line, the Emax stood at 28% and the IC50 is above 20 µM. In addition, in the test with NHACs, the EC50 was determined as 27 µM and the Emax is 243%.

On to `O=C(Nc1ccc(Cl)c(Cl)c1)[C@H]1[C@@H](c2ccnc(C(F)(F)F)c2)[C@H]2O[C@@H]1C[C@@H]2O` (single isomer, unassigned) [Example 54a], for which, in the test with C3H10T1/2 cell line, the Emax was 35% and the IC50 was above 20 µM. In the test on NHACs, the EC50 came out at 3.5 µM and the Emax came to 45%.

As to `Nc1cc([C@H]2[C@H]3O[C@H](C[C@@H]3O)[C@@H]2C(=O)Nc2ccc(Cl)c(Cl)c2)ccn1` [Example 149, (1R,2R,3S,4R,5S)-3-(2-aminopyridin-4-yl)-N-(3,4-dichlorophenyl)-5-hydroxy-7-oxabicyclo[2.2.1]heptane-2-carboxamide], in the test on C3H10T1/2 cell line, the Emax came to 58% and the half-inhibitory concentration (IC50) came out at 8.3 µM. Moreover, in the test on NHACs, the EC50 amounted to 26 µM and the Emax was found to be 112%.

As for `Cc1cc([C@H]2[C@H]3O[C@H](C[C@H]3O)[C@@H]2C(=O)Nc2ccc(Cl)c(Cl)c2)ccn1` [Example 180, (1R,2R,3S,4R,5R)—N-(3,4-dichlorophenyl)-5-hydroxy-3-(2-methylpyridin-4-yl)-7-oxabicyclo[2.2.1]heptane-2-carboxamide], in the test on C3H10T1/2 cell line, the Emax is 69% and the IC50 was found to be 11 µM. For the same compound, in the test on NHACs, the concentration giving a half-maximal response (EC50) was 30 µM and the Emax worked out at 113%.

In the case of `Cc1ccc([C@H]2[C@H]3O[C@H](C[C@@H]3O)[C@@H]2C(=O)Nc2ccc(Cl)c(Cl)c2)cn1` [Example 138, (1R,2R,3S,4R,5S)—N-(3,4-dichlorophenyl)-5-hydroxy-3-(6-methylpyridin-3-yl)-7-oxabicyclo[2.2.1]heptane-2-carboxamide], in the test with C3H10T1/2 cell line, the Emax came out at 24% and the 50% inhibitory concentration (IC50) is above 20 µM. In addition, in the test on NHACs, the EC50 is above 50 µM and the Emax was determined as 0%.

`Cc1cc([C@H]2[C@H]3O[C@H]([C@@H]4C[C@@H]43)[C@@H]2C(=O)Nc2ncc(C)s2)ccn1` [Example 70, (1S,2S,4R,5R,6R,7S)-7-(2-methylpyridin-4-yl)-N-(5-methylthiazol-2-yl)-8-oxatricyclo[3.2.1.0^2,4]octane-6-carboxamide]: in the test on C3H10T1/2 cell line, the Emax is 1% and the IC50 is above 20 µM. Besides, in the test with NHACs, the EC50 is above 50 µM and the Emax came to 25%.

For `Cc1cc([C@H]2[C@H]3O[C@H]([C@@H]4C[C@@H]43)[C@@H]2C(=O)Nc2cccc(OC(F)(F)F)c2)ccn1` [Example 69, (1S,2S,4R,5R,6R,7S)-7-(2-methylpyridin-4-yl)-N-(3-(trifluoromethoxy)phenyl)-8-oxatricyclo[3.2.1.0^2,4]octane-6-carboxamide], in the test with C3H10T1/2 cell line, the Emax was 63% and the half-maximal inhibitory concentration (IC50) was above 20 µM. Also, in the test with NHACs, the EC50 came out at 21 µM and the Emax is 180%.

For `Cc1cc([C@@H]2[C@@H]3O[C@@H](C[C@@H]3F)[C@H]2C(=O)Nc2ccc(Cl)c(Cl)c2)ccn1` (single isomer, unassigned) [Example 94], in the test with C3H10T1/2 cell line, the Emax was 0% and the IC50 is above 20 µM. Moreover, in the test on NHACs, the concentration for a half-maximal effect (EC50) was 18 µM and the Emax turned out to be 157%.

Consider `Cc1cc([C@H]2[C@H]3O[C@H](C[C@H]3NC3CCOCC3)[C@@H]2C(=O)Nc2ccc(Cl)c(Cl)c2)ccn1` [Example 169, (1R,2R,3S,4R,5R)—N-(3,4-dichlorophenyl)-3-(2-methylpyridin-4-yl)-5-((tetrahydro-2H-pyran-4-yl)amino)-7-oxabicyclo[2.2.1]heptane-2-carboxamide], for which, in the test with C3H10T1/2 cell line, the Emax is 54% and the IC50 is above 20 µM. Moreover, in the test with NHACs, the EC50 is above 50 µM and the Emax was determined as 69%.

Turning to `Cc1cc([C@H]2[C@H]3O[C@H](C[C@@H]3O)[C@@H]2C(=O)NC2CCN(S(C)(=O)=O)CC2)ccn1` [Example 79, (1R,2R,3S,4R,5S)-5-hydroxy-3-(2-methylpyridin-4-yl)-N-(1-(methylsulfonyl)piperidin-4-yl)-7-oxabicyclo[2.2.1]heptane-2-carboxamide], in the test on C3H10T1/2 cell line, the Emax is 34% and the concentration for half-maximal inhibition (IC50) is above 20 µM. For the same compound, in the test with NHACs, the half-maximal effective concentration (EC50) was above 50 µM and the Emax was 113%.

On to `Cc1cc([C@H]2[C@H]3O[C@H](C[C@@H]3F)[C@@H]2C(=O)Nc2ccc(Cl)c(Cl)c2)ccn1` [Example 105, (1R,2R,3S,4R,5S)—N-(3,4-dichlorophenyl)-5-fluoro-3-(2-methylpyridin-4-yl)-7-oxabicyclo[2.2.1]heptane-2-carboxamide], for which, in the test with C3H10T1/2 cell line, the Emax was 68% and the half-maximal inhibitory concentration (IC50) was 1.7 µM. Also, in the test on NHACs, the concentration for a half-maximal effect (EC50) turned out to be 8.2 µM and the Emax came to 106%.

Take `O=C(Nc1cnc(Cl)c(Cl)c1)[C@H]1[C@@H]2O[C@@H]([C@H]3C[C@H]32)[C@@H]1c1cncnc1` [Example 75, (1S,2S,4R,5R,6R,7S)—N-(5,6-dichloropyridin-3-yl)-7-(pyrimidin-5-yl)-8-oxatricyclo[3.2.1.0^2,4]octane-6-carboxamide]: in the test on C3H10T1/2 cell line, the Emax was found to be 45% and the IC50 was above 20 µM. For the same compound, in the test on NHACs, the 50% effective concentration (EC50) worked out at 4.4 µM and the Emax was 73%.

Turning to `O=C(Nc1ccc(Cl)c(Cl)c1)[C@@H]1[C@H](c2ccnc(C(F)(F)F)c2)[C@@H]2O[C@H]1C[C@H]2O` (single isomer, unassigned) [Example 54b], in the test on C3H10T1/2 cell line, the Emax was 46% and the IC50 is above 20 µM. In addition, in the test with NHACs, the EC50 was above 50 µM and the Emax amounted to 16%.

`Cc1cc([C@H]2[C@H]3O[C@H](C[C@H]3N(C)C)[C@@H]2C(=O)Nc2ccc(Cl)c(Cl)c2)ccn1` [Example 166, (1R,2R,3S,4R,5R)—N-(3,4-dichlorophenyl)-5-(dimethylamino)-3-(2-methylpyridin-4-yl)-7-oxabicyclo[2.2.1]heptane-2-carboxamide]: in the test on C3H10T1/2 cell line, the Emax was determined as 0% and the IC50 is above 20 µM. In the test with NHACs, the EC50 came to 24 µM and the Emax amounted to 68%.
